Laboratory results published in patent publication US6855723B2, “Methods of modulating serine/threonine protein kinase function with azabenzimidazole-based compounds” (Zentaris GmbH, priority 1997, dated 2005).
Where two headings read alike, the source gives them in different places.

How the values were obtained:
RAF-1 = molecular target: T1, RAF-1 (Homo sapiens, UniProt P04049); assay: RAF-1 ELISA assay (RAF-1 phosphorylation of MEK and MAPK); type: biochemical; settings: RAF-1 phosphorylation assay, lysates from RAS/RAF infected Sf9 cells, T-MEK and His-MAPK substrates
T1 construct: made in house; host or cells: Sf9 (Spodoptera frugiperda) insect cells co-infected with RAS and RAF recombinant baculoviruses
T1 sequence (P04049 whole entry): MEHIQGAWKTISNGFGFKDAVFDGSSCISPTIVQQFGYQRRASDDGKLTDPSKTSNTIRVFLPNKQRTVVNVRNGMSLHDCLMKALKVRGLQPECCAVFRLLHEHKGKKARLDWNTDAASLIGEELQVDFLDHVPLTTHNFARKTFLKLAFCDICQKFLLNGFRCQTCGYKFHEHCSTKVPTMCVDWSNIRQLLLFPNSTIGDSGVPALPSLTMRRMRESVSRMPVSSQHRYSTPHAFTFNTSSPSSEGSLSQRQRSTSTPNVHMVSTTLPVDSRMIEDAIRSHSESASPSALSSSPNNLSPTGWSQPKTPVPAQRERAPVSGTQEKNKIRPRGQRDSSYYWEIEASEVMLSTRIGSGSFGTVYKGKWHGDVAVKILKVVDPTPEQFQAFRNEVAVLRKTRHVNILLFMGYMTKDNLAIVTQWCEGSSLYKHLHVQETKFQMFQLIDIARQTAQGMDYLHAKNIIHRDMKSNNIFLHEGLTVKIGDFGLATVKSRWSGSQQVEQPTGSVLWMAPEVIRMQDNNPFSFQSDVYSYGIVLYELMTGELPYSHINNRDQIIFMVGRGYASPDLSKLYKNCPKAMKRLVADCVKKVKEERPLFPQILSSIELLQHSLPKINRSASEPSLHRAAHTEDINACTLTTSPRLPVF
Excerpt: Assay Measuring Phosphorylating Function of RAF
The following assay reports the amount of RAF-catalyzed phosphorylation of its target protein MEK as well as MEK's target MAPK. The RAF gene sequence is described in Bonner et al., 1985, Molec. Cell. Biol. 5: 1400-1407, and is readily accessible in multiple gene sequence data banks. Construction of the nucleic acid vector and cell lines utilized for this portion of the invention are fully described in Morrison et al., 1988, Proc. Natl. Acad. Sci. USA 85: 8855-8859.
All of the following steps were conducted at room temperature unless specifically indicated.
1. ELISA plate coating: ELISA wells are coated with 100 μL of Sheep anti mouse affinity purified antiserum (1 μg/100 μL coating buffer) over night at 4° C. […]
11. […] Insert the holder into radioactive detection apparatus and quantify the radioactive phosphorous on the filter mats.
Alternatively, 40 μL aliquots from individual wells of the assay plate can be transferred to the corresponding Positions on the phosphocellulose filter mat. […] Insert the holder into a detection device and quantify the radioactive phosphorous on the filter mats.
IC50 values were measured according to the protocol for the following azabenzimidazole-based compounds in the RAF-1 ELISA assay: [drawing 5] […] The IC50 values measured in the RAF-1 phosphorylation assay are depicted in Table 1: […]

EGF Receptor = molecular target: T2, EGF Receptor (Homo sapiens, UniProt P00533); assay: EGF receptor phosphorylation assay in whole cells (EGFR-NIH3T3 assay); type: cell-based; settings: EGF receptor kinase activity in whole cells
T2 construct: expressed in transfected cells; host or cells: NIH3T3 cells (EGFR-NIH3T3)
T2 sequence (P00533 25-1210): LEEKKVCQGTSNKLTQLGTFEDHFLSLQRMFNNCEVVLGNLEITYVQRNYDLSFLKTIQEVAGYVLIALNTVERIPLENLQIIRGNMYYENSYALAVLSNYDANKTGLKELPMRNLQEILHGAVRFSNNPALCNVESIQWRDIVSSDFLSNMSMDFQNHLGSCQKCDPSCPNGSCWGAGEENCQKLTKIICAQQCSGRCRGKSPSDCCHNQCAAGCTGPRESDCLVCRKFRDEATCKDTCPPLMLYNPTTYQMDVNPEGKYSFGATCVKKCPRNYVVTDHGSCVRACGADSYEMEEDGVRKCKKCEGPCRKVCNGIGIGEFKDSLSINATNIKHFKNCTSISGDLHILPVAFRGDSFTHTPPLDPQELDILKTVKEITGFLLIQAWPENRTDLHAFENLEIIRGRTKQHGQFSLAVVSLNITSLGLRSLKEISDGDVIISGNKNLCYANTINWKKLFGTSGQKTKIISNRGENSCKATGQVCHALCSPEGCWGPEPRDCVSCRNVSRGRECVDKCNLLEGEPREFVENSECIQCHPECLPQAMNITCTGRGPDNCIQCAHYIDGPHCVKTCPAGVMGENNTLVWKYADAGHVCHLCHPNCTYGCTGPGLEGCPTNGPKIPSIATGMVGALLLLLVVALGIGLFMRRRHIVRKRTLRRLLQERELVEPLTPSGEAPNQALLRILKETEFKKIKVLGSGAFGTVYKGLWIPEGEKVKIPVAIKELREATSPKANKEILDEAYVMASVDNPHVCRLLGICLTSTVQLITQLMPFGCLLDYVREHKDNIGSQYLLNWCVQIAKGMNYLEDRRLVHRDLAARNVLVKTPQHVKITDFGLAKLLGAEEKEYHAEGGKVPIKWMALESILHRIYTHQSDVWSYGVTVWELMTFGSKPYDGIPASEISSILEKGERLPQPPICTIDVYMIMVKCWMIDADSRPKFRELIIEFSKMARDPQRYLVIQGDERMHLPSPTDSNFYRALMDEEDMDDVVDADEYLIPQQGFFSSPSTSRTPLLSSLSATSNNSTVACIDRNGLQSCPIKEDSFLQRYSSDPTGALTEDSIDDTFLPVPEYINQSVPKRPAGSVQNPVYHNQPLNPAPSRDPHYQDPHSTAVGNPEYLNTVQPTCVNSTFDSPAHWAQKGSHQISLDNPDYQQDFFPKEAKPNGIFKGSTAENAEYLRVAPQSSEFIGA
Protocol: Assay Measuring Phosphorylating Function of EGF Receptor
EGF Receptor kinase activity (EGFR-NIH3T3 assay) in whole cells was measured as described in detail in PCT Publication WO9640116, filed Jun. 5, 1996, by Tang et al., and entitled “Indolinone Compounds for the Treatment of Disease,” incorporated herein by reference in its entirety, including any drawings.
The IC50 values measured in the EGF receptor phosphorylation assay are depicted in Table 2: […]

[1] = test system: 3T3/H-Ras (NIH 3T3 clone 7 cells expressing genomic fragment of oncogenic H-Ras); assay: Growth of NIH 3T3 cells over expressing H-Ras (SRB); type: cell-based; settings: Mus musculus, NIH3T3, 72 h; cell growth, 2% calf serum, 3 days incubation
Protocol: Assay Measuring the Effect of Azabenzimidazole-Based Compounds on the Growth of Cells Expression RAS
The following assay measures growth rates for NIH-3T3 cells expressing RAS. The purpose of the assay is to determine the effects of compounds on the growth of NIH 3T3 cells over expressing H-Ras.
(§1) • 96-well flat bottom sterile plates • 96-well round bottom sterile plates • sterile 25 mL or 100 mL reservoir • pipets, multi-channel pipetman • sterile pipet tips • sterile 15 mL and 50 mL tubes Reagents • 0.4% SRB in 1% acetic acid • 10 mM Tris base • 10% TCA • 1% acetic acid • sterile DMSO (Sigma) • compound in DMSO (100 mM or less stock solution) • Trypsin-EDTA (GIBCO BRL) Cell Line • 3T3/H-Ras (NIH 3T3 clone 7 cells expressing genomic fragment of oncogenic H-Ras).
The cells can be constructed using the following protocol: • 1. Subclone a gene fragment encoding Ras into a commercially available vector that will stably transfect NIH-3T3 cells. The fragment is from the genomic transforming allele of cHa-ras. • 2. Transfect NIH-3T3 cells with the subcloned vector by a calcium phosphate method. Select cells expressing the Ras construct in 2% serum in DMEM. Visible foci are observed after 2 weeks. Pool the transformed cells to generate a stably transformed cell line. […]
6. Read plates on Dynatech ELISA Plate REader at 570 nm with reference at 630 nm.

[2] = test system: A549 human lung carcinoma cells; assay: Growth of A549 cells (SRB); type: cell-based; settings: cell growth
Protocol: Assay Measuring Effect of Azabenzimidazole-Based Compounds on Growth of A549 Cells
The following assay measures growth rates for A549 cells. The purpose of the assay is to determine the effects of compounds on the growth of A549 human lung carcinoma cells. A549 cells are readily accessible from commercial sources, such as ATCC (CCL185).
as §1, with “tips” for “tips •”, “Line and Growth Medium” for “Line”, “A549 human lung carcinoma” for “3T3/H-Ras (NIH 3T3 clone 7”, “(ATCC CCL185) • 10% fetal calf serum in Ham's F12-K Protocol Day 0: Cell Plating This part” for “expressing genomic fragment”, “assay is carried out in a laminar flow hood.” for “oncogenic H-Ras).”
1. Trypsinize cells. Transfer 200 μL of cell suspension to 10 mL of isotone. Count cells with a Coulter Counter.
2. Dilute cells in growth medium to 20,000 cell/mL. Transfer 100 μL of cells to each well in a 96-well flat bottom plate to give 2000 cells/well.
3. Use half of plate (4 rows) for each compound and quadruplicate wells for each compound concentration, and a set of 4 wells for medium control.
4. […]
6. Read plates on Dynatech ELISA Plate Reader at 570 nm with reference at 630 nm.

Question: Which results are given for `COC(=O)Nc1nc2ccc(Oc3ccccc3)nc2[nH]1` [Compound A-3]?
Answer: IC50 (RAF-1): 6.1 µM; IC50 (EGF Receptor): > 100 µM; IC50 [1]: 40 µM; IC50 ([2]; 2% FBS, read-out: IC50 (μM) A549 (2% FBS)): 65 µM; IC50 ([2]; 10% fetal calf serum in Ham's F12-K, read-out: IC50 (μM) A549): 22 µM; melting point: > 280 °C (dec.)
